From patent publication US7638623B2, “Galactoside inhibitors of galectins” (Forskarpatent I SYD AB, priority 2004, dated 2009)

Tests used:
galectin-3 = target: T1, galectin-3 (Homo sapiens, UniProt P17931); assay: fluorescence polarization-based galectin-3 inhibition assay; format: binding; settings: read-out: Calculated Kd
T1 construct: made in house; host or cells: Escherichia coli
Method: NMR-spectra were recorded with a Bruker DRX-400 instrument. Chemical shifts are given in ppm, with reference to internal residual solvent peaks. Chemical shifts and coupling constants were obtained from ^1H-NMR and proton resonances were assigned from COSY experiments. High-resolution FAB mass spectra (HRMS) were recorded with a JEOL SX-120 instrument. Fluorescence polarization experiments were performed on a PolarStar instrument (BMG, Offenburg; Germany). Column chromatography was performed on SiO2 (Matrex, 60 Å, 35-70 μm, Grace Amicon) and TLC was carried out on SiO2 60 F254 (Merck) with detection under UV light and developed with aqueous sulfuric acid. Concentrations were made using rotary evaporation with bath temperature at or below 40° C. CH2Cl2 and CH3CN were dried by distillation from CaH2.
To 100 μL of galectin-3 (1 μM) and a fluorescent probe (2-(fluorescein-5/6-yl-carbonyl)-aminoethyl 4-O-[3-O-(4-methoxylbenzyl)-β-D-galactopyranosyl]-β-D-glucopyranoside, 0.1 μM) were added inhibitor solution (3.2-80 μM, 100 μL), the plate was incubated under slow rotary shaking in the dark for 5 minutes, and fluorescence polarization measured at room temperature. The fluorescence was measured from above in 96 well microtiter plates (black polystyrene, Costar, Corning, N.Y.) using a PolarStar instrument (BMG, Offenburg; Germany). Control wells containing only fluorescent probe or fluorescein were included. All dilutions and measurements were done in PBS.

galectins = settings: cited from earlier work

T1 sequence (P17931 whole entry): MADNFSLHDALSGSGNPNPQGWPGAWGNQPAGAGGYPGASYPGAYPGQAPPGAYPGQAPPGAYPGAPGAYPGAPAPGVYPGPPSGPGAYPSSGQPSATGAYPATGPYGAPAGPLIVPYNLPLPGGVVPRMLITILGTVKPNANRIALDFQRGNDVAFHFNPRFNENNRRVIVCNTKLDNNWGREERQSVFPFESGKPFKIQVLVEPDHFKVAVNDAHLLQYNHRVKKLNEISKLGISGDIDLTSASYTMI

Row | Kd (galectin-3) | Compound | further results
1 | 52 µM | CO[C@@H]1OC(CO)[C@@H](O[C@@H]2OC(CO)[C@H](O)C(O)C2O)C(O)C1NC(C)=O (stereo partly drawn) [Compound 22, methyl β-glycoside of N-acetyllactosamine, reference compound] | –
2 | 0.02 µM | COc1cc(OC)cc(C(=O)NC2C(O)[C@H](S[C@@H]3OC(CO)[C@H](O)C(NC(=O)c4cc(OC)cc(OC)c4)C3O)OC(CO)[C@@H]2O)c1 (stereo partly drawn) [Compound 19, Bis-[3-deoxy-(3,5-dimethoxybenzamido)-β-D-galactopyranosyl]sulfane] | –
3 | 0.05 µM | O=C(N[C@H]1[C@@H](O)[C@@H](CO)O[C@@H](S[C@@H]2O[C@H](CO)[C@H](O)[C@H](NC(=O)c3ccc([N+](=O)[O-])cc3)[C@H]2O)[C@@H]1O)c1ccc([N+](=O)[O-])cc1 [Compound 20, Bis-[3-deoxy-3-(4-nitrobenzamido)-β-D-galactopyranosyl]sulfane] | –
4 | – | OC[C@H]1O[C@@H](O[C@H]2[C@H](O)[C@@H](O)C(O)O[C@@H]2CO)[C@H](O)[C@@H](O)[C@H]1O (stereo partly shown) [lactose] | Kd (galectins; all galectins): 500 to 1000 µM
5 | 1.44 µM | O=C(N[C@H]1[C@@H](O)[C@@H](CO)O[C@@H](S[C@@H]2O[C@H](CO)[C@H](O)[C@H](NC(=O)c3ccccc3)[C@H]2O)[C@@H]1O)c1ccccc1 [Compound 17, Bis-(3-deoxy-3-benzamido-β-D-galactopyranosyl) sulfane] | –
6 | 0.03 µM | O=C(N[C@H]1[C@@H](O)[C@@H](CO)O[C@@H](S[C@@H]2O[C@H](CO)[C@H](O)[C@H](NC(=O)c3ccc4ccccc4c3)[C@H]2O)[C@@H]1O)c1ccc2ccccc2c1 [Compound 21, Bis-[3-deoxy-3-(2-naphthamido)-β-D-galactopyranosyl]sulfane] | –
7 | – | O=C[C@H](O)[C@@H](O)[C@@H](O)[C@H](O)CO [D-galactose] | affinity, times lower than lactose (galectins; relative to lactose): 50-100 times
